From patent US8252326B2, “Self-microemulsifying dosage forms of low solubility active ingredients such as co-enzyme Q10” (Catalent Australia Pty Ltd., priority 2005, dated 2012)

What was measured:
[1] = Solubility of coenzyme Q10 in oils, surfactants and co-surfactants; type: physicochemical
Protocol: To determine suitable excipient systems for actives, solubility studies were carried out on a variety of constituents of the inventive SMEDDS formulations. The solubility of Q10 in various oils, surfactants and co-surfactants were determined by placing an excess of the Q10 (approximately 2.5 g) in 22.5 g of the vehicle in screw capped glass bottles and heating the mixture to 55° C. in a water bath to facilitate the solubilization. Mixtures were equilibrated at room temperature for 24 hours and then filtered through 0.45 μm membrane filter to separate the undissolved drug. One gram of the filtered liquid mixtures were then weighed and diluted with cyclohexane and quantified by UV/Visible Spectrometry. Lemon oil and isopropyl myristate provided higher solubility than other oils. Although not limited to a theory of operation, it is believed that the oils form a distinct core in the interior of the surfactant aggregate when being dispersed in water, resulting in enhanced solubilizing capacity of the oils with improved drug loading capabilities of the emulsion.

[2] = cited from earlier work

- Solubility of coenzyme Q10 (% w/w) ([1]; in Acetylated monoglycerides, room temperature 24 hours): 7.5 % w/w
- Solubility of coenzyme Q10 (% w/w) ([1]; in Capmul MCM C8, room temperature 24 hours): 1.50 % w/w
- Solubility of coenzyme Q10 (% w/w) ([1]; in Glyceryl mono-oleate, room temperature 24 hours): 2.41 % w/w
- Solubility of coenzyme Q10 (% w/w) ([1]; in Isopropyl myristate, room temperature 24 hours): 11.2 % w/w
- Solubility of coenzyme Q10 (% w/w) ([1]; in Labrafac Hydro WL1219, room temperature 24 hours): 3.17 % w/w
- Solubility of coenzyme Q10 (% w/w) ([1]; in Labrafil M 1944, room temperature 24 hours): 5.91 % w/w
- Solubility of coenzyme Q10 (% w/w) ([1]; in Labrafil M 2125, room temperature 24 hours): 5.35 % w/w
- Solubility of coenzyme Q10 (% w/w) ([1]; in Lauroglyco 1 FCC, room temperature 24 hours): 3.05 % w/w
- Solubility of coenzyme Q10 (% w/w) ([1]; in Lauroglyco 190, room temperature 24 hours): 3.06 % w/w
- Solubility of coenzyme Q10 (% w/w) ([1]; in Lemon oil, equilibrated at room temperature 24 hours, 0.45 μm filtered): 24.3 % w/w
- Solubility of coenzyme Q10 (% w/w) ([1]; in Medium chain triglycerides, room temperature 24 hours): 3.74 % w/w
- Solubility of coenzyme Q10 (% w/w) ([1]; in Oleic acid, room temperature 24 hours): 3.80 % w/w
- Solubility of coenzyme Q10 (% w/w) ([1]; in PEG 35 Castor oil, room temperature 24 hours): 2.34 % w/w
- Solubility of coenzyme Q10 (% w/w) ([1]; in Polysorbate 80, room temperature 24 hours): 0.370 % w/w
- Solubility of coenzyme Q10 (% w/w) ([1]; in Polysorbate 85, room temperature 24 hours): 1.57 % w/w
- Solubility of coenzyme Q10 (% w/w) ([1]; in Span 80, room temperature 24 hours): 3.24 % w/w
- Solubility of coenzyme Q10 (% w/w) ([1]; in Transcutol P, room temperature 24 hours): 0.260 % w/w
Compound: COC1=C(OC)C(=O)C(C/C=C(\C)CC/C=C(\C)CC/C=C(\C)CC/C=C(\C)CC/C=C(\C)CC/C=C(\C)CC/C=C(\C)CC/C=C(\C)CC/C=C(\C)CCC=C(C)C)=C(C)C1=O [Coenzyme Q10]
- Solubility in water [2]: practically insoluble in water
